pIC50: −log10 of the molar value.
System: virus attachment
Assay: Cell-based p24 attachment assay
Details: for pIC50: Table 7, high dose test of 100 µM, read-out: Attachment I50
Experimental: The cell-based p24 attachment assay was performed as described in Rice (1995) Science 270:1194-1197. Viral inactivation assays were carried out as described in Rice (1995) Science 270:1194-1197, and Turpin (1997) supra, with minor modifications. Briefly, MAGI-CCR-5 cells were plated (4 x 10^4 cells per well) in flat bottomed 2-cm well plates for 24 h, after which the culture media was removed and compound-treated virus was added. The virus used was obtained by transient transfection of pNL4-3 into HeLa cells yielding the replication competent NL4-3 virus. Virus containing supernatants were treated for 2 h at 37°C after which residual compound was removed by centrifugation (18,000 x g, 1h, 4°C). Virus pellets were resuspended and placed on the MAGI-CCR-5 monolayers and cultured for 48 h. Monolayers were fixed and stained with X-gal solution and blue cells counted.

Structure (SMILES)	inhibition of virus attachment	pIC50
CC(=O)NS(=O)(=O)c1ccc(NC(=O)c2ccccc2SC(=O)CCCCBr)cc1 [Compound 44, N-[2-(5-bromovaleroylthio)benzoyl]sulfacetamide]	did not inhibit	< 4.00
CC(=O)NS(=O)(=O)c1ccc(NC(=O)c2ccccc2SC(=O)CCCC[n+]2ccccc2)cc1 [Compound 45, N-[2-(5-pyridinio-valeroylthio)benzoyl]sulfacetamide bromide]	did not inhibit	< 4.00
O=C(CCCC[n+]1ccccc1)Sc1ccccc1C(=O)Nc1ccc(S(=O)(=O)c2ccc([N+](=O)[O-])cc2)cc1 [Compound 47]	did not inhibit	< 4.00

— patent publication EP1087941B9, “THIOLESTERS AND USES THEREOF” (THE UNITED STATES OF AMERICA, as represented by THE …, priority 1998, dated 1999)
